Results published in US11753395B2 (Kinnate Biopharma Inc., priority 2021, dated 2023).

How the values were obtained:
[1] = target: T1, Ba/F3-TPR-MET cells (Homo sapiens, UniProt P08581); test: CellTiter-Glo Cell Viability Assay, Ba/F3-TPR-MET; assay type: cell-based; settings: 72 hours
T1 construct: fused on or other part: P12270 (Nucleoprotein TPR)
Experimental: (§1) Ba/F3-TPR-MET and Ba/F3-TPR-MET-D1228N cells were seeded at 3000 cells per well in a 96 well plate in 90 μL growth media and allowed to incubate overnight at 37° C. with 5% CO2. The following day, compounds were serially diluted from a 10 mM top dose for a 9-point 3-fold dilution curve in DMSO. Following a 100-fold dilution in growth media, a further 10-fold dilution was made into the cell plate for a final volume of 100 μL and 0.1% DMSO. Compounds and cells were incubated together for 72 hours at 37° C. with 5% CO2. The CellTiter-Glo® 2.0 Assay determines the number of viable cells in culture by quantifying ATP, which indicates the presence of metabolically active cells. Luminescence readout is directly proportional to the number of viable cells in culture. CellTiter-Glo reagent (Promega, G9243) and cell plates were allowed to equilibrate to room temperature for at least 15 min, then 100 μL of CellTiter-Glo was added to each well for a 1:1 ratio of reagent to media. Samples were placed on a shaker for 2 min prior to a 30 min incubation at room temperature protected from light. Luminescence was read on a Perkin Elmer Envision plate reader 2105 and used to calculate ICso values within the Dotmatics Knowledge Solutions Studies curve fitting environment (Dotmatics, Bishops Stortford, UK, CM23) and are presented in Table 2.

[2] = target: T2, MET (Homo sapiens, UniProt P08581); test: MET Mobility Shift Assay; settings: biochemical assay IC50; 100 μM ATP, 60 minute kinase reaction
T2 construct: purchased Carna Biosciences 08-151
Experimental: (§2) Small molecule inhibition of MET kinase activity was evaluated using a fluorescence-based microfluidic mobility shift assay. MET catalyzes the production of ADP from ATP during phosphoryl transfer to the substrate peptide, FLPeptide30 (5-FAM-KKKKEEIYFFF-CONH2) (Perkin Elmer, 760430). MET enzme (Carna Biosciences, 08-151) at 0.625 nM was prepared with 10 mM MgCl2 and 1.5 μM substrate peptide in a buffer containing 50 mM HEPES, 1 mM EGTA, 0.01% Brij-35, 0.05% BSA, and 2 mM DTT and pre-incubated at room temperature for 30 min prior to the start of the reaction. 100 μM ATP was added to start the reaction. The mobility shift assay electrophoretically separates the fluorescently labeled peptides (substrate and phosphorylated product) following the 60 minute kinase reaction. The reaction was terminated by addition of 0.5 M EDTA. Both substrate and product were measured and the ratio of these values used to generate % conversion of substrate to product by the LabChip EZ reader (Perkin Elmer). ICso values were calculated using the inhibition of conversion ratio using Dotmatics Knowledge Solutions Studies curve fitting environment (Dotmatics, Bishops Stortford, UK, CM23) and are presented in Table 2.

[3] = target: T3, MET D1228N (Homo sapiens, UniProt P08581, D1228N); test: MET D1228N Mobility Shift Assay; settings: biochemical assay IC50; 100 μM ATP, 60 minute kinase reaction
T3 construct: purchased Signalchem M52-12IG
Experimental: as §2, with “MET D1228N” for “MET”, “a fluorescence -based” for “a fluorescence-based”, “FLPeptide30 (5-FAM-KKKKEEIYFFF -CONH2)” for “FLPeptide30 (5-FAM-KKKKEEIYFFF-CONH2)”, “MET D1228N enzyme (Signalchem, M52-12IG)” for “MET enzme (Carna Biosciences, 08-151)”, “at 0.313” for “at 0.625”

[4] = target: T4, Ba/F3-TPR-MET-D1228N cells (Homo sapiens, UniProt P08581, D1228N, cells depend on it); test: CellTiter-Glo Cell Viability Assay, Ba/F3-TPR-MET-D1228N; assay type: cell-based; settings: 72 hours
T4 construct: fused on or other part: P12270 (Nucleoprotein TPR)
Experimental: as §1

Molecule | EC50 [1] [µM] | IC50 [2] [µM] | IC50 [3] [µM] | EC50 [4] [µM]
CNCCOc1ccc2c(Oc3c(F)cc(NC(=O)c4cnc(F)cc4OC4CC4)cc3F)ccnc2c1 [Example 109, 4-cyclopropoxy-N-(3,5-difluoro-4-((7-(2-(methylamino)ethoxy)quinolin-4-yl)oxy)phenyl)-6-fluoropyridine-3-carboxamide] | ≤ 0.1 | ≤ 0.1 | ≤ 0.1 | ≤ 0.1
CNCCOc1cc2nccc(Oc3c(F)cc(NC(=O)c4cnc(C)cc4OC)cc3F)c2cc1OC [Example 45, N-(3,5-difluoro-4-((6-methoxy-7-(2-(methylamino)ethoxy)quinolin-4-yl)oxy)phenyl)-4-methoxy-6-methylpyridine-3-carboxamide] | 0.1 to 1 | ≤ 0.1 | ≤ 0.1 | 0.1 to 1
CNCCOc1cc2nccc(Oc3c(F)cc(NC(=O)c4cnccc4OC4CC4)cc3F)c2cc1OC [Example 54, 4-cyclopropoxy-N-[3,5-difluoro-4-({6-methoxy-7-[2-(methylamino)ethoxy]quinolin-4-yl}oxy)phenyl]pyridine-3-carboxamide] | ≤ 0.1 | ≤ 0.1 | ≤ 0.1 | ≤ 0.1
CNCCOc1cc2nccc(Oc3c(F)cc(NC(=O)c4cnccc4OC4COC4)cc3F)c2cc1OC [Example 68, N-[3,5-difluoro-4-({6-methoxy-7-[2-(methylamino)ethoxy]quinolin-4-yl}oxy)phenyl]-4-(oxetan-3-yloxy)pyridine-3-carboxamide] | 0.1 to 1 | ≤ 0.1 | ≤ 0.1 | ≤ 0.1
CNCCOc1cc2ncnc(Oc3c(F)cc(NC(=O)c4cnccc4OC)cc3F)c2cc1OC [Example 8, N-(3,5-difluoro-4-((6-methoxy-7-(2-(methylamino)ethoxy)quinazolin-4-yl)oxy)phenyl)-4-methoxypyridine-3-carboxamide] | 0.1 to 1 | ≤ 0.1 | ≤ 0.1 | 0.1 to 1
COc1cc2nccc(Oc3c(F)cc(NC(=O)c4cnccc4OC4CC4)c(F)c3F)c2cc1OC [Example 92, 4-cyclopropoxy-N-{4-[(6,7-dimethoxyquinolin-4-yl)oxy]-2,3,5-trifluorophenyl}pyridine-3-carboxamide] | 0.1 to 1 | ≤ 0.1 | ≤ 0.1 | 0.1 to 1
(R)-N-(4-((7-(2-aminopropoxy)quinolin-4-yl)oxy)-3,5-difluorophenyl)-4-cyclopropoxypyridine-3-carboxamide [Example 13] | 0.1 to 1 | ≤ 0.1 | ≤ 0.1 | ≤ 0.1
COc1cc2c(Oc3c(F)cc(NC(=O)c4cnc(C)cc4OC4CC4)cc3F)ccnc2cc1OCCO [Example 116, 4-cyclopropoxy-N-(3,5-difluoro-4-{[7-(2-hydroxyethoxy)-6-methoxyquinolin-4-yl]oxy}phenyl)-6-methylpyridine-3-carboxamide] | ≤ 0.1 | ≤ 0.1 | ≤ 0.1 | ≤ 0.1
C#CCOc1ccncc1C(=O)Nc1cc(F)c(Oc2ccnc3cc(OCCNC)c(OC)cc23)c(F)c1 [Example 73, N-[3,5-difluoro-4-({6-methoxy-7-[2-(methylamino)ethoxy]quinolin-4-yl}oxy)phenyl]-4-(prop-2-yn-1-yloxy)pyridine-3-carboxamide] | ≤ 0.1 | ≤ 0.1 | ≤ 0.1 | ≤ 0.1
CNCCOc1cc2nccc(Oc3cc(F)c(NC(=O)c4cnccc4OC)cc3F)c2cc1OC [Example 24, N-[2,5-difluoro-4-({6-methoxy-7-[2-(methylamino)ethoxy]quinolin-4-yl}oxy)phenyl]-4-methoxypyridine-3-carboxamide] | 0.1 to 1 | ≤ 0.1 | ≤ 0.1 | ≤ 0.1
CNCCOc1cc2nccc(Oc3ccc(NC(=O)c4cnccc4OC)c(F)c3F)c2cc1OC [Example 14, N-(2,3-difluoro-4-((6-methoxy-7-(2-(methylamino)ethoxy)quinolin-4-yl)oxy)phenyl)-4-methoxypyridine-3-carboxamide] | 0.1 to 1 | ≤ 0.1 | ≤ 0.1 | 0.1 to 1
COc1cc2nccc(Oc3c(F)cc(NC(=O)c4cnccc4OC)cc3F)c2cc1O[C@H](C)CO [Example 131, (R)-N-(3,5-difluoro-4-{[6-((1-hydroxypropan-2-yl)oxy)-7-methoxyquinolin-4-yl]oxy}phenyl)-4-methoxypyridine-3-carboxamide] | ≤ 0.1 | ≤ 0.1 | ≤ 0.1 | ≤ 0.1
CNCCOc1ccc2c(Oc3c(F)cc(NC(=O)c4cccnc4OC4CC4)cc3F)ccnc2c1 [Example 79, 2-cyclopropoxy-N-[3,5-difluoro-4-({7-[2-(methylamino)ethoxy]quinolin-4-yl}oxy)phenyl]pyridine-3-carboxamide] | 0.1 to 1 | ≤ 0.1 | ≤ 0.1 | 0.1 to 1
CNCCOc1ccc2c(Oc3c(F)cc(NC(=O)c4cnccc4OC4CC4)c(F)c3F)ccnc2c1 [Example 94, 4-cyclopropoxy-N-[2,3,5-trifluoro-4-({7-[2-(methylamino)ethoxy]quinolin-4-yl}oxy)phenyl]pyridine-3-carboxamide] | ≤ 0.1 | ≤ 0.1 | ≤ 0.1 | ≤ 0.1
CNCCOc1cc2nccc(Oc3c(F)cc(NC(=O)c4cnccc4OC4CC(F)(F)C4)cc3F)c2cc1OC [Example 57, N-[3,5-difluoro-4-({6-methoxy-7-[2-(methylamino)ethoxy]quinolin-4-yl}oxy)phenyl]-4-(3,3-difluorocyclobutoxy)pyridine-3-carboxamide] | 0.1 to 1 | ≤ 0.1 | ≤ 0.1 | 0.1 to 1
CNCCOc1cc2nccc(Oc3c(F)cc(NC(=O)c4cnc(NCCOC)cc4OC)cc3F)c2cc1OC [Example 46, N-(3,5-difluoro-4-((6-methoxy-7-(2-(methylamino)ethoxy)quinolin-4-yl)oxy)phenyl)-4-methoxy-6-((2-methoxyethyl)amino)pyridine-3-carboxamide] | ≤ 0.1 | ≤ 0.1 | ≤ 0.1 | ≤ 0.1
CNCCOc1cc2nccc(Oc3c(F)cc(NC(=O)c4cnccc4OCC4CC4)cc3F)c2cc1OC [Example 72, 4-(cyclopropylmethoxy)-N-[3,5-difluoro-4-({6-methoxy-7-[2-(methylamino)ethoxy]quinolin-4-yl}oxy)phenyl]pyridine-3-carboxamide] | 0.1 to 1 | ≤ 0.1 | ≤ 0.1 | ≤ 0.1
CNCCOc1cc2nccc(Oc3c(F)cc(NC(=O)c4cnc(C)nc4OC4CC4)cc3F)c2cc1OC [Example 114, 4-cyclopropoxy-N-[3,5-difluoro-4-({6-methoxy-7-[2-(methylamino)ethoxy]quinolin-4-yl}oxy)phenyl]-2-methylpyrimidine-5-carboxamide] | 0.1 to 1 | ≤ 0.1 | ≤ 0.1 | 0.1 to 1
COCCOc1cc2nccc(Oc3c(F)cc(NC(=O)c4cnccc4OC4CC4)cc3F)c2nc1OC [Example 136, 4-cyclopropoxy-N-(3,5-difluoro-4-{[6-methoxy-7-(2-methoxyethoxy)-1,5-naphthyridin-4-yl]oxy}phenyl)pyridine-3-carboxamide] | ≤ 0.1 | ≤ 0.1 | ≤ 0.1 | ≤ 0.1
